Laboratory results: patent US20040121994A1, “Novel amides that activate soluble guanylate cyclase” (priority 2002, published 2004)

Key:
[1] = biological target: T1, soluble guanylate cyclase (sGC), α1 and β1 subunits of guanylate cyclase expressed in Sf9 cells (Homo sapiens, UniProt Q02108+Q02153); assay: Guanylate cyclase assay (formation of cyclic GMP from GTP); assay type: biochemical; details: for Mean activation at 100 μM: (activity of compound at 100 μM with 1 μM SNP)−(activity of compound at 100 μM)/(activity of SNP at 1 μM)−(basal activity of sGC); for Mean efficacy of compound combined with 1 μM of SNP, [%]: compound at 100 μM with 1 μM sodium nitro prusside (SNP); for Emax at 100 µM: read-out: Mean basal efficacy of compound alone at 100 μM, [%]
T1 construct: made in house; host or cells: Sf9 insect cells (baculovirus co-infection)
T1 sequence (Q02108 1-690): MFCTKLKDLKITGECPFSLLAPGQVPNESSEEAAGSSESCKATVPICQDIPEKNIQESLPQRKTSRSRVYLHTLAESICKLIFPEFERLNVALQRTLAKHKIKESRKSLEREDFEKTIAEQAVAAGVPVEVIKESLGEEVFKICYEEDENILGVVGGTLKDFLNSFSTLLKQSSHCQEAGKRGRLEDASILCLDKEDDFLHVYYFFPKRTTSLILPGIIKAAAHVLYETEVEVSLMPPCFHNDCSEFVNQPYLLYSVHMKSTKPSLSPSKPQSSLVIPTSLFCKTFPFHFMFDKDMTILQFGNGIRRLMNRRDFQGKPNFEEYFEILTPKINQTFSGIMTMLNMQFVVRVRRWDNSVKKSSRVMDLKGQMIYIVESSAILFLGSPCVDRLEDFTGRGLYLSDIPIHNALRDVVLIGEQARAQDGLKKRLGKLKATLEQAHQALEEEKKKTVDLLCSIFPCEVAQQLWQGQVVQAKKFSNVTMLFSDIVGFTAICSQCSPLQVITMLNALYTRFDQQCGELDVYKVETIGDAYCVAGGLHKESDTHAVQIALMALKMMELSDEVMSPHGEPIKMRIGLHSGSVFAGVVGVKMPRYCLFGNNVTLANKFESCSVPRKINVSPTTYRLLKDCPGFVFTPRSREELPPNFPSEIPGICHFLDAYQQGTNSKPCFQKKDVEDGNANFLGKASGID
T1 sequence (Q02153 1-619): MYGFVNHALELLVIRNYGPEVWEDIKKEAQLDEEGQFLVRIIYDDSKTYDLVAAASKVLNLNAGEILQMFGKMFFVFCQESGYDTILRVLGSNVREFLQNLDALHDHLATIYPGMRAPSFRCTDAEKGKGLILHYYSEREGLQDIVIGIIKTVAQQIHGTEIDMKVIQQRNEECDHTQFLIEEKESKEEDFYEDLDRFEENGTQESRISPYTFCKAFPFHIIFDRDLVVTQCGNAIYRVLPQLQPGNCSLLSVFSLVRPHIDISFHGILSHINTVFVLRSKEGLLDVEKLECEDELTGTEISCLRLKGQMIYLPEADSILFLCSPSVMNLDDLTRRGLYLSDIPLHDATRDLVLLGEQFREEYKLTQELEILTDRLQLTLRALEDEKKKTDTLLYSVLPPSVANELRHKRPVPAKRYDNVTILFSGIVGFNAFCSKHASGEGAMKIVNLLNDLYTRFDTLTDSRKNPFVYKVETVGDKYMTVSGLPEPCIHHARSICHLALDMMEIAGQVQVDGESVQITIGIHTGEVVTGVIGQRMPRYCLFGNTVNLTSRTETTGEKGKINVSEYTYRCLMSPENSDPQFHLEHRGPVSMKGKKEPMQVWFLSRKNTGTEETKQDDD
Procedure, shortened: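 Sf9 high-speed supernatant with human sGC α1/β1 converted 1 mM GTP to cGMP over 15 min at 37 °C (50 mM Tris pH 7.6, 4 mM MgCl2, 0.5 mM IBMX); cGMP by enzyme immunoassay. Compounds at 100 μM, with or without 1 μM SNP; activity expressed relative to 100 μM YC-1 (no SNP) as 100%.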

[2] = normalized with the activity of 100 μM YC-1 (without SNP) as 100%
[3] = compound at 100 μM without SNP, normalized with the activity of 100 μM YC-1 (without SNP) as 100%

Row | Mean activation at 100 μM [1] | Mean efficacy of compound combined with 1 μM of SNP, [%] [1, 2] | Emax at 100 µM [1, 3] | melting point | Mean basal efficacy of compound alone at 100 μM, [%] [1, 3] | SMILES
1 | 2.9 | 110% | 69% | 68 to 71 °C |  | O=C(/C=C/c1ccccc1Sc1ccc(Cl)cc1Cl)NCCCCO [Example 29, (2E)-3-{2-[(2,4-dichlorophenyl)thio]phenyl}-N-(4-hydroxybutyl)acrylamide]
2 | 3.4 | 289% | 66% | 86 to 88 °C |  | O=C(/C=C/c1ccccc1Sc1ccc(Cl)cc1)NC1CCC(O)CC1 (stereo not drawn) [Example 30, (2E)-3-{2-[(4-chlorophenyl)thio]phenyl}-N-(4-hydroxycyclohexyl)acrylamide]
3 | 9.5 | 160% | 54% | 134 to 136 °C |  | COc1ccc(Sc2ccccc2/C=C/C(=O)NCCCCO)cc1 [Example 43, (2E)-N-(4-hydroxybutyl)-3-{2-[(4-methoxyphenyl)thio]phenyl}acrylamide]
4 | 2.7 | 224% |  |  | 100% | OCc1ccc(-c2nn(Cc3ccccc3)c3ccccc23)o1 [YC-1, 1-Benzyl-3-hydroxymethyl-2-furylindazole, reference compound]
